In patent US8653074B2, “Substituted sodium 1H-pyrazol-5-olate” (Bayer Intellectual Property GmbH, priority 2010, dated 2014):

Assays:
[1] = Vapour adsorption and vapour desorption (moisture sorption isotherm); assay type: physicochemical; settings: for Adsorption / Desorption: 25° C.
Experimental: Vapour Adsorption and Vapour Desorption:
The moisture sorption isotherm was recorded using a Dynamic Vapour Sorption Analyzer IGA Sorp from Hiden Analytical. The measuring temperature was 25° C. There was no sample preparation.

[2] = Solubility in water; assay type: physicochemical; settings: for solubility thermodynamic at 16 h: thermodynamic from solid, water, 25° C., stirred 16 hours, HPLC
Experimental: Method: Saturated solutions of the test substance were prepared by stirring a suspension in water at 25° C. for 16 hours. The suspensions obtained were then filtered, and the content in the filtrate was determined by HPLC.

[3] = Vapour adsorption and vapour desorption (moisture sorption isotherm); assay type: physicochemical; settings: customary environmental conditions (20-35° C., atmospheric pressure)
[4] = target: T1, EGLN2/PHD1 (Homo sapiens, UniProt Q96KS0); assay: Inhibition of the activity of HIF prolyl hydroxylase (VBC complex binding test); assay type: biochemical; settings: mean for EGLN2/PHD1
T1 construct: host or cells: cell lysate
Experimental: The test is carried out as described [Oehme F., Jonghaus W., Narouz-Ott L., Huetter J., Flamme I., Anal. Biochem. 330 (1), 74-80 (2004)]:
A clear 96-well microtiter plate coated with NeutrAvidin HBC (Pierce) is incubated with blocker casein for 30 minutes. The plate is then washed three times with 200 μl each time of wash buffer (50 mM Tris, pH 7.5, 100 mM NaCl, 10% (v/v) blocker casein, 0.05% (v/v) Tween 20) per well. The peptide biotin-[sequence] (Eurogentec, 4102 Seraing, Belgium) is added in a concentration of 400 nM in 100 μl wash buffer. This peptide serves as a substrate for the prolyl hydroxylation and is bonded to the microtiter plate. After incubation for 60 minutes, the plate is washed three times with wash buffer, incubated with 1 mM biotin in blocker casein for 30 minutes and then washed again three times with wash buffer.
To carry out the prolyl hydroxylase reaction, the peptide substrate bonded to the plate is incubated with a cell lysate containing prolyl hydroxylase for 1 to 60 minutes. […]

[5] = target: EGLN1/PHD2 (Homo sapiens, UniProt Q9GZT9); assay: biochemical
Experimental: Hydroxylated HIF bonds specifically to the von Hippel-Lindau protein-elongin B-elongin C complex (VBC complex). This interaction occurs only if HIF is hydroxylated on a conserved prolyl radical. It is the basis for the biochemical determination of HIF prolyl hydroxylase activity.
A clear 96-well microtiter plate coated with NeutrAvidin HBC (Pierce) is incubated with blocker casein for 30 minutes. The plate is then washed three times with 200 μl each time of wash buffer (50 mM Tris, pH 7.5, 100 mM NaCl, 10% (v/v) blocker casein, 0.05% (v/v) Tween 20) per well. […] This peptide serves as a substrate for the prolyl hydroxylation and is bonded to the microtiter plate. After incubation for 60 minutes, the plate is washed three times with wash buffer, incubated with 1 mM biotin in blocker casein for 30 minutes and then washed again three times with wash buffer. […]
For quantitative determination of the prolyl hydroxylation, a fusion protein which contains both thioredoxin from E. coli and the VBC complex in 80 μl bonding buffer (50 mM Tris, pH 7.5, 120 mM NaCl) is added. […] The amount of bonded VBC complex is determined by measurement of the optical density at 450 nm. […]
Alternatively, a VBC complex coupled to europium (Perkin Elmer) can be used for detection of the prolyl hydroxylation. In this case, the amount of bonded VBC complex is determined by the fluorescence with respect to time.

[6] = system: recombinant A549 cell line with luciferase reporter under hypoxia-responsible elements; assay: Cellular, functional in vitro test (luciferase reporter under hypoxia-responsible elements); assay type: cell-based; settings: Homo sapiens
Excerpt: 1.b) Cellular, Functional in vitro Test:
The activity of the compounds according to the invention is quantified with the aid of a recombinant cell line. The cell is originally derived from a human lung carcinoma cell line (A549, ATCC: American Type Culture Collection, Manassas, Va. 20108, USA). The test cell line is transfected in a stable manner with a vector which contains the reporter gene of Photinus pyralis luciferase (called luciferase in the following) under the control of an artificial minimal promoter. […] Under the effect of hypoxia (e.g. culturing in the presence of 1% oxygen for 24 hours) or under the action of non-selective dioxygenase inhibitors (e.g. desferroxamine in a concentration of 100 μM, cobalt chloride in a concentration of 100 μM or N-oxalylglycine diethyl ester in a concentration of 1 mM), the test cell line produces luciferase, which can be detected and quantified with the aid of suitable bioluminescence reagents (e.g. Steady-Glo® Luciferase Assay System, Promega Corporation, Madison, Wis. 53711, USA) and a suitable luminometer.
On the day before the test, the cells are plated out in an exactly calculated amount of culture medium (DMEM, 10% FCS, 2 mM glutamine) in 384- or 1,536-well microtiter plates and kept in a cell incubator (96% atmospheric humidity, 5% v/v CO2, 37° C.). […]

T1 sequence (Q96KS0 whole entry): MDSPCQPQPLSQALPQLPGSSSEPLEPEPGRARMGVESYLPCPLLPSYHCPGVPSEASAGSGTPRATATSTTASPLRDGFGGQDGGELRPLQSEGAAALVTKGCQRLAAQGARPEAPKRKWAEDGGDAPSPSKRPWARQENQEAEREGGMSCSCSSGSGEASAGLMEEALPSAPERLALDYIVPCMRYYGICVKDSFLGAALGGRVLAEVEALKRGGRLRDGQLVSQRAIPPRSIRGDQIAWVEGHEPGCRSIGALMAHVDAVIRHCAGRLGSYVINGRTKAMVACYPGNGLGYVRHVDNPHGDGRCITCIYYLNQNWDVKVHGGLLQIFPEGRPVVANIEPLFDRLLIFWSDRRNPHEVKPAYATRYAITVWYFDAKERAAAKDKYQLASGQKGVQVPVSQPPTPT
Chain of EGLN1/PHD2 (Q9GZT9 whole entry): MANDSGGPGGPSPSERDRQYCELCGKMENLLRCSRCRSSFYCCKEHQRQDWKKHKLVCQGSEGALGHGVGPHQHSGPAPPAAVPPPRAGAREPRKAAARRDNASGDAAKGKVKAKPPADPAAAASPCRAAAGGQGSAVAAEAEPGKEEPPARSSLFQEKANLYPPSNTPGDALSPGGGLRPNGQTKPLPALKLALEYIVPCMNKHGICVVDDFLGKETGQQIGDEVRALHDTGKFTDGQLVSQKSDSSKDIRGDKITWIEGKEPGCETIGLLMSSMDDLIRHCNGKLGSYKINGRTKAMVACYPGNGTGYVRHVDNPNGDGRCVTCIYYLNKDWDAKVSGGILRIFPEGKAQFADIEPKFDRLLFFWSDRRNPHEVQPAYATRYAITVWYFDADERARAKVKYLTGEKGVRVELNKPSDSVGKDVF

Adsorption ([1]; 0% rh)	Adsorption ([1]; 10% rh)	Desorption ([1]; 10% rh)	Adsorption ([1]; 20% rh)	Desorption ([1]; 20% rh)	Adsorption ([1]; 30% rh)	Desorption ([1]; 30% rh)	Adsorption ([1]; 40% rh)	Desorption ([1]; 40% rh)	Adsorption ([1]; 50% rh)	Desorption ([1]; 50% rh)	Adsorption ([1]; 60% rh)	Desorption ([1]; 60% rh)	Adsorption ([1]; 70% rh)	Desorption ([1]; 70% rh)	Adsorption ([1]; 80% rh)	Desorption ([1]; 80% rh)	Adsorption ([1]; 90% rh)	Desorption ([1]; 90% rh)	solubility thermodynamic at 16 h [2]	SMILES	other results
0.1%	0.2%	0.1%	0.3%	0.2%	4.8%	4.7%	5.1%	5.2%	5.3%	5.4%	5.4%	5.6%	5.6%	5.6%	5.7%	5.7%	5.9%	5.9%	0.143 mg/mL	Oc1c(-n2ccnn2)cnn1-c1cc(N2CCOCC2)ncn1 [Compound of the formula (I), 1-[6-(morpholin-4-yl)pyrimidin-4-yl]-4-(1H-1,2,3-triazol-1-yl)-1H-pyrazol-5-ol, reference compound]	Desorption ([1]; 5% rh (printed in the 0% rh line)): 0.1% (5% rh); uptake of water ([1]; 20-35° C., atmospheric pressure, relative atmospheric humidity above 20% rh): up to 6 % by weight; hygroscopicity [3]: hygroscopic
0%	0%	0%	0.1%	0%	0.1%	0.1%	0.2%	0.2%	0.2%	0.3%	0.2%	0.3%	0.4%	0.4%	0.4%	0.5%	0.8%	0.8%	28 mg/mL	[Na+].[O-]c1c(-n2ccnn2)cnn1-c1cc(N2CCOCC2)ncn1 [Compound of the formula (II), sodium 1-[6-(morpholin-4-yl)pyrimidin-4-yl]-4-(1H-1,2,3-triazol-1-yl)-1H-pyrazol-5-olate]	IC50 [4]: 470 nM; water content [1]: less than 0.5 % by weight; Desorption ([1]; 0% rh): 0%; change of water content ([1]; 20-35° C., atmospheric pressure, atmospheric humidity of up to 90% rh): less than 0.5 % by weight; IC50 [5]: 140 nM; EC50 [6]: 7 nM; solubility in water compared to the compound of the formula (I) [2]: higher solubility in water; hygroscopicity [3]: not hygroscopic
